For one data set, the target named is Cannabinoid receptor 1 (Homo sapiens, UniProt P21554). The data set can be described thus: biochemical. The class given is cell-based, CHO.
Another data set addresses Cannabinoid receptor 2 (Homo sapiens, UniProt P34972). As to the kind of experiment: Displacement of [3H]CP-55940 from human CB2 receptor expressed in CHO cells. The class given is cell-based. (Displacement assays read how much labelled ligand stays bound in the presence of the test substance.)
The species entered for another data set is Homo sapiens. The data set can be described thus: Selectivity ratio Ki for human CB2 receptor to Ki for human CB1 receptor.
The nature of data set [1]: Lipophilicity log P of compound at pH 7.4 by RP-HPLC analysis. The class given is physicochemical. Conditions: buffer.
The test system of a further data set is Rattus norvegicus. The data set can be described thus: Inhibition of CP-55940-induced hypotension in po dosed anaesthetized rat. The class given is functional. Particulars: read-out: ID50 (the source's name).
Another data set deals with LLC-PK1. The data set can be described thus: Efflux ratio of permeability in pig LLC-PK1 cells expressing human MDR1 assessed as ratio of bottom to top transport over top to bottom transport. It is filed as ADME, cell-based, Sus scrofa.
Data set [2] in a line: Terminal half life in non obese human. The class given is ADME, organism-based. Particulars: in vivo, read-out: beta t1/2 (converted).

From ChEMBL document CHEMBL1157923, “Probing the cannabinoid CB1/CB2 receptor subtype selectivity limits of 1,2-diarylimidazole-4-carboxamides by fine-tuning their 5-substitution pattern” (Bioorg Med Chem Lett, 2010) come the findings set out here.

Each structure is given as a SMILES string.

Sequence of Cannabinoid receptor 2 (P34972 whole entry): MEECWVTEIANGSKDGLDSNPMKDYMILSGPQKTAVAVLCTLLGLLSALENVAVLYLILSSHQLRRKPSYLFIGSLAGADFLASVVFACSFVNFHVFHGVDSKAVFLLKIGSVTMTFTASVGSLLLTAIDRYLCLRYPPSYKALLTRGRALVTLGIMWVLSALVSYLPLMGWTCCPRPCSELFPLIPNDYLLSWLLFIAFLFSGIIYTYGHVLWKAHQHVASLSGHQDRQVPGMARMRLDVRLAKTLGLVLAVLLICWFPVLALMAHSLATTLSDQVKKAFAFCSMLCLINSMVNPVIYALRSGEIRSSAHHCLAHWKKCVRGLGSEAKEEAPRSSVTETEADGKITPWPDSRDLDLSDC
Sequence of Cannabinoid receptor 1 (P21554 whole entry): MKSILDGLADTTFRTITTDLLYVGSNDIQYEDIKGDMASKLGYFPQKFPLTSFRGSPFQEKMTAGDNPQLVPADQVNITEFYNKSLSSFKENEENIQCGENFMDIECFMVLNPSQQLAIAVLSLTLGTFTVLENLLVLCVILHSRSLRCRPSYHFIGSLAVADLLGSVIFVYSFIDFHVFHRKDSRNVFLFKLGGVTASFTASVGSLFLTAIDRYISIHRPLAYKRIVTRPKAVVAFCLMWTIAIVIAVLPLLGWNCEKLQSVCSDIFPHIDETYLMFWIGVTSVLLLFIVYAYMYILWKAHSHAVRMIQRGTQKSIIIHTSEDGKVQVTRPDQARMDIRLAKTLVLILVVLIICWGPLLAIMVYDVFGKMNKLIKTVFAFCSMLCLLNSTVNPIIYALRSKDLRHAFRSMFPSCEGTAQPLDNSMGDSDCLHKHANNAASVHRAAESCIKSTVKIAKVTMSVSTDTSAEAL

`CSc1c(C(=O)NN2CCCCCC2)nn(-c2ccc(Cl)cc2Cl)c1-c1ccc(Cl)cc1`: the figures for the Ki at Cannabinoid receptor 1 and on Cannabinoid receptor 2 were 27 nM and 371 nM, respectively. In addition, the Ratio IC50 in the data set filed under Homo sapiens amounted to 14.

As to `N#Cc1c(C(=O)NN2CCCCC2)nc(-c2ccc(Cl)cc2Cl)n1-c1ccc(Cl)cc1`, the Ratio IC50 in the data set listed under Homo sapiens stood at 53.

For the compound `CS(=O)(=O)c1c(C(=O)NN2CCCCC2)nc(-c2ccc(Cl)cc2Cl)n1-c1ccc(Cl)cc1`, in data set [1], the logP (commonly the decadic logarithm of the partition coefficient of the neutral form, usually between octanol and water) was 3.5. Besides, on Cannabinoid receptor 2, the Ki (commonly the dissociation constant of the complex between target and ligand, obtained from inhibition or displacement) was greater than 10000 nM. Further, in the data set filed under Homo sapiens, the Ratio IC50 is greater than 840. In addition, in the data set with Rattus norvegicus, the ED50 was found to be 29 mg/kg. Besides, the Ratio with LLC-PK1 is 6.

For the compound `C[S+]([O-])c1c(C(=O)NN2CCCCC2)nc(-c2ccc(Cl)cc2Cl)n1-c1ccc(Cl)cc1` (single isomer, unassigned; (+)) [listing 1 of 2 here], the Ratio IC50 in the data set filed under Homo sapiens was greater than 77.

`CSc1c(C(=O)NN2CCCC2)nn(-c2ccc(Cl)cc2Cl)c1-c1ccc(Cl)cc1` displayed a logP in data set [1] of 4.7. Besides, the Ki on Cannabinoid receptor 1 worked out at 3 nM; on Cannabinoid receptor 2 it was 634 nM. For the same compound, the Ratio IC50 in the data set listed under Homo sapiens was 211. Further, the ED50 in the data set with Rattus norvegicus was 1.9 mg/kg.

The compound `C[S+]([O-])c1c(C(=O)NN2CCCCC2)nn(-c2ccc(Cl)cc2Cl)c1-c1ccc(Cl)cc1` (stereo not drawn) yielded a logP in data set [1] of 3.7. Also, the figures for the Ki on Cannabinoid receptor 1 and at Cannabinoid receptor 2 were 20 nM and 398 nM, respectively. Besides, the Ratio IC50 in the data set listed under Homo sapiens is 20. For the same compound, the ED50 with Rattus norvegicus was greater than 30 mg/kg. In addition, the Ratio with LLC-PK1 was 8.

For the compound `C[S+]([O-])c1c(C(=O)NN2CCCCC2)nc(-c2ccc(Cl)cc2Cl)n1-c1ccc(Cl)cc1` (single isomer, unassigned; (-)) [listing 1 of 2 here], in the data set filed under Homo sapiens, the Ratio IC50 was greater than 50.

For the compound `C[S+]([O-])c1c(C(=O)NN2CCCCC2)nc(-c2ccc(Cl)cc2Cl)n1-c1ccc(Cl)cc1` (stereo in doubt; 12) [listing 1 of 2 here], the logP in data set [1] amounted to 3.7. Moreover, the Ki on Cannabinoid receptor 1 was 49 nM; on Cannabinoid receptor 2 (cho) it was greater than 1000 nM. In addition, in the data set on Rattus norvegicus, the ED50 is greater than 30 mg/kg. Besides, the Ratio in the data set on LLC-PK1 came to 7.7.

For `O=C(NN1CCCCC1)c1nc(-c2ccc(Cl)cc2Cl)n(-c2ccc(Cl)cc2)c1I`, the Ki on Cannabinoid receptor 1 worked out at 10 nM; at Cannabinoid receptor 2, 1810 nM. Further, in the data set listed under Homo sapiens, the Ratio IC50 was determined as 181.

For the compound `Cc1c(C(=O)NN2CCCCC2)nc(-c2ccc(Cl)cc2Cl)n1-c1ccc(Cl)cc1`, the Ratio IC50 in the data set filed under Homo sapiens stood at 20.

For `C[S+]([O-])c1c(C(=O)NN2CCCCC2)nc(-c2ccc(Cl)cc2Cl)n1-c1ccc(Cl)cc1` (single isomer, unassigned; (-)) [listing 2 of 2 here], the Ki at Cannabinoid receptor 1 is 20 nM; on Cannabinoid receptor 2, greater than 1000 nM.

As for `CSc1c(C(=O)NN2CCCCC2)nn(-c2ccc(Cl)cc2Cl)c1-c1ccc(Cl)cc1`, the Ki was 13 nM on Cannabinoid receptor 1 and 804 nM at Cannabinoid receptor 2. Also, in the data set with Rattus norvegicus, the ED50 was 1.5 mg/kg.

Regarding `C[S+]([O-])c1c(C(=O)NN2CCCCC2)nc(-c2ccc(Cl)cc2Cl)n1-c1ccc(Cl)cc1` (stereo in doubt; 12) [listing 2 of 2 here], the Ratio IC50 in the data set filed under Homo sapiens is greater than 20.

Turning to `O=C(NN1CCCCC1)c1nc(-c2ccc(Cl)cc2Cl)n(-c2ccc(Cl)cc2)c1CO`, the figures for the Ki at Cannabinoid receptor 1 and on Cannabinoid receptor 2 were 34 nM and 7500 nM, respectively. The Ratio IC50 in the data set filed under Homo sapiens was 221.

On to `C[S+]([O-])c1c(C(=O)NN2CCCCC2)nc(-c2ccc(Cl)cc2Cl)n1-c1ccc(Cl)cc1` (single isomer, unassigned; (+)) [listing 2 of 2 here], for which the values for the Ki on Cannabinoid receptor 1 and at Cannabinoid receptor 2 (cho) were 12.9 nM and greater than 1000 nM, respectively.

`CCc1c(C(=O)NN2CCCCC2)nc(-c2ccc(Cl)cc2Cl)n1-c1ccc(Cl)cc1`: in the data set filed under Homo sapiens, the Ratio IC50 was found to be 31.

On to `CSc1c(C(=O)NN2CCCCCC2)nc(-c2ccc(Cl)cc2Cl)n1-c1ccc(Cl)cc1`, for which the Ki turned out to be 12 nM at Cannabinoid receptor 1 and 325 nM on Cannabinoid receptor 2. Moreover, the Ratio IC50 in the data set listed under Homo sapiens was 27.

Take `CSc1c(C(=O)NN2CCCCC2)nc(-c2ccc(Cl)cc2Cl)n1-c1ccc(Cl)cc1`: in data set [1], the logP amounted to 4.8. Besides, the Ki on Cannabinoid receptor 1 was 12.2 nM; at Cannabinoid receptor 2, 1070 nM. For the same compound, the Ratio IC50 in the data set listed under Homo sapiens amounted to 88. Besides, the ED50 in the data set with Rattus norvegicus was determined as 1.9 mg/kg. Besides, the Ratio in the data set with LLC-PK1 is listed as 1.4.

For the compound `Cc1c(C(=O)NN2CCCCC2)nn(-c2ccc(Cl)cc2Cl)c1-c1ccc(Cl)cc1` [RIMONABANT], the half-life in data set [2] was 144 h.

Consider `CSc1c(C(=O)NN2CCCC2)nc(-c2ccc(Cl)cc2Cl)n1-c1ccc(Cl)cc1`, for which the Ki on Cannabinoid receptor 1 was 8.9 nM. In addition, the Ratio IC50 in the data set filed under Homo sapiens is greater than 112.

For the compound `CCSc1c(C(=O)NN2CCCCC2)nc(-c2ccc(Cl)cc2Cl)n1-c1ccc(Cl)cc1`, the Ki was 51 nM on Cannabinoid receptor 1 and greater than 1000 nM on Cannabinoid receptor 2. In addition, the Ratio IC50 in the data set filed under Homo sapiens was greater than 19.
